Assays:
[1] = tested on: HUVEC; experiment: HUVEC growth inhibition assay (NCI); format: cell-based, human; details: 72 h, crystal violet
Procedure: Angiogenesis assays were provided by the NCI, details of the assay protocols are given below. In each assays TNP-470 and paclitaxel (Taxol®) were used as reference compounds. HUVEC (1.5×10^3) were plated in a 96-well plate in 100 μL of EBM-2 (Clonetic #CC3162). […] On day 0, one plate was stained with 0.5% crystal violet in 20% methanol for 10 minutes, rinsed with water, and air-dried. The remaining plates were incubated for 72 h at 37° C. After 72 h, plates were stained with 0.5% crystal violet in 20% methanol, rinsed with water and air-dried. The stain was eluted with 1:1 solution of ethanol:0.1 M sodium citrate (including day 0 plate), and absorbance was measured at 540 nm with an ELISA reader (Dynatech Laboratories). Day 0 absorbance was subtracted from the 72 h plates and data was plotted as percentage of control proliferation (vehicle treated cells).

[2] = tested on: HUVEC; experiment: HUVEC cord formation assay on matrigel (NCI); format: cell-based, human; details: 24 h
Procedure: Angiogenesis assays were provided by the NCI, details of the assay protocols are given below. In each assays TNP-470 and paclitaxel (Taxol®) were used as reference compounds. Matrigel (60 μL of 10 mg/mL; Collaborative Lab #35423) was placed in each well of an ice-cold 96-well plate. The plate was allowed to sit at room temperature for 15 minutes then it was incubated at 37° C. for 30 minutes to permit the matrigel to polymerize. In the mean time, HUVEC were prepared in EGM-2 (Clonetic #CC3162) at a concentration of 2×10^5 cells/mL. […] The cells (500 μL) and the drug at 2 times concentration (500 μL) were mixed and 200 μL of this suspension was placed in duplicate on the polymerized matrigel. After 24 h incubation, triplicate pictures were taken for each concentration using a Bioquant Image Analysis system. Drug effect (IC50) is assessed compared to untreated controls by measuring the length of cords formed and number of junctions.

[3] = tested on: HUVEC; experiment: HUVEC cell migration (chemotaxis) assay, Boyden chamber (NCI); format: cell-based, human; details: 5 h
Procedure: Angiogenesis assays were provided by the NCI, details of the assay protocols are given below. In each assays TNP-470 and paclitaxel (Taxol®) were used as reference compounds. Migration was assessed using the 48-well Boyden chamber and 8 μm pore size collagen-coated (10 μg/mL rat tail collagen; Collaborative Laboratories) polycarbonate filters (Osmonics, Inc.). The bottom chamber wells received 27-29 μL of DMEM medium alone (baseline) or medium containing chemo-attractant (bFGF, VEGF or Swiss 3T3 cell conditioned medium). The top chambers received 45 μL of HUVEC cell suspension (1×10^6 cells/mL) prepared in DMEM+1% BSA with or without test compound. After 5 h incubation at 37° C., the membrane was rinsed in PBS, fixed and stained in Diff-Quick solutions. The filter was placed on a glass slide with the migrated cells facing down and cells on top were removed using a Kimwipe. The testing was performed in 4-6 replicates and five fields were counted from each well. Negative, unstimulated, control values were subtracted from stimulated control and drug treated values and data was plotted as mean migrated cell±S.D. The IC50 was calculated from the plotted data.

[4] = tested on: endothelial cell proliferation and endothelial capillary formation; details: cited from earlier work
[5] = tested on: Lewis lung adenocarcinoma; details: rats, intraperitoneal and per os, subtoxic doses; cited from earlier work
[6] = tested on: mouse colon adenocarcinoma cells; details: subtoxic dose, colon 38 spleen liver model; cited from earlier work
[7] = tested on: VEGFxxx and VEGFxxxb expression in RPE cells; experiment: VEGF isoform ELISA of media of treated RPE cells; format: cell-based; details: 0.5 μM or 5 μM, 72 hours
Procedure: Media was sampled after 72 hours treatment, and assessed for total VEGF and VEGFxxxb expression (see Bates et al., 2002, Woolard et al., 2004 and Varey et al., 2008 for methods).

[8] = tested on: VEGFxxxb and total VEGF in RPE cells; experiment: Dose dependent effect on VEGF in RPE cell lysate (ELISA, Western blot); format: cell-based; details: 24 hours
Procedure: FIG. 7: Comparison of the effect of compound 5 on the VEGF levels by ELISA. RPE cells were treated with increasing concentrations of compound 5 for 24 hours and the VEGFxxxb and total VEGF concentrations measured by ELISA. **p<0.05, Dunnett's, **p<0.01, 95% confidence interval, alpha=0.05, N=3.
FIG. 8: (A) Western Blot analysis of the cell lysate for expression of VEGF165b. Primary antibody: 56/1 mouse anti-h antibody (200 μg/ml, 1:250 dilution) and secondary antibody: Goat anti-mouse antibody (1:7000 dilution).
RPE cell lysate was extracted after 24 hours incubation with increasing concentrations of compound 5. VEGFxxxb and VEGFxxx levels were then analysed by ELISA (see Bates et al., 2002, Woolard et al., 2004 and Varey et al., 2008 for methods). These levels were compared to total cell protein levels.

[9] = tested on: FBP21 in RPE cells; experiment: VEGFxxxb levels in RPE cells transfected with FBP21 construct; format: cell-based, human; details: pWV327 vs pOriGene-FBP21 control, 7 uM, 24 hours
Procedure: (§1) pOriGene-FBP21 (FIG. 9A, SEQ ID No. 5) was purchased from Origene. This construct contains the cDNA for the human FBP21 gene. Due to the presence in this contruct of non-essential DNA which would have disrupted the expression of FBP21, a three part ligation was carried out to remove this DNA. This generated pWV327 (FIG. 9B, SEQ ID No. 6).
(§2) Both RPE and HEK cells were transfected with either pOriGene-FBP21 (as a control, due to the lack of FBP21 expression) or pWV327 (for overexpression of FBP21), using standard techniques. These cell lines were then treated with compound 5 (7 uM) or untreated, and VEGFxxxb levels analysed after 24 hours. FIGS. 10A, B and C show the results of this analysis.

[10] = tested on: FBP21 in HEK cells; experiment: VEGFxxxb levels in HEK cells transfected with FBP21 construct; format: cell-based, human; details: pWV327 vs pOriGene-FBP21 control, 7 uM, 24 hours
Procedure: as §1, §2

[11] = tested on: retinal neovascularisation; experiment: Mouse Retinopathy of Prematurity (ROP) oxygen induced retinopathy model; format: in vivo; details: for neovascularisation compared with contralateral eye: day 17, p<0.01 paired t-test
Procedure: Evidence that compound 5, a borrelidin analogue which affects splicing of VEGF through FBP21, affects angiogenesis was gained from an in vivo mouse model, […] (ROP), which mimics some of the processes in Age-related Macular Degeneration and other eye diseases where neovascularisation is associated with disease progression.
Compound 5 was dosed at two concentrations, 0.5 μM and 5 μM, in a mouse Retinopathy of Prematurity (ROP) model (see Konopatskaya et al., 2006 for methods). Oxygen induced retinopathy was induced by placing the mice at 75% oxygen from day 7 to day 12 post birth and then removing them to normal room air. Mice were injected with either vehicle (0.02% DMSO in HBSS) or 0.5 μM or 5 μM compound 5 into one eye, and the other left uninjected (contralateral). At day 17 mice were killed, retinas removed and stained for endothelial cells with isolectin (FIG. 11).

[12] = target: T1, FBP21 (Homo sapiens, UniProt O75554); experiment: Phage display biopanning with biotinylated bait, Human Colon Tumour Library; format: binding; details: SDS and E. coli elution
T1 construct: encode 99 amino acids in frame with the phage coat protein of which a segment of 83 residues share 100% homology with FBP21; purchased Novagen; host or cells: T7 phage amplified in E. coli BLT5403
T1 sequence (O75554 with tags, fused parts or gaps): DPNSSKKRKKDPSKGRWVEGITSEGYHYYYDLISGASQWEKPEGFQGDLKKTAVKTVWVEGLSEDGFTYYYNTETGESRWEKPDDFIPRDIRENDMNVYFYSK
Procedure: Streptavidin wells were incubated with 1 μM biotinylated probe at 4° C. overnight to prepare the wells for biopanning. After incubation, unbound biotinylated probe was removed from the well by washing with phosphate buffered saline (PBS). Wells were then blocked with blocking solution (3% skimmed milk in PBS) for at least one hour at room temperature. Blocked wells were then briefly washed with PBS and were ready for biopanning use. […] In the first round of biopanning, 0.15 mL of amplified phage library was added to an empty streptavidin coated well and incubated at room temperature for at least 1 hour. This step was included to deselect any phage displaying streptavidin binding proteins. After incubation, the phage were removed from the well and mixed with 50 μL 4× blocking solution (12% skimmed milk in PBS) and incubated at room temperature for at least one hour. 0.125 mL of blocked phage library was added to each pre-prepared biotinylated well and incubated at room temperature for at least one hour. […] After incubation, unbound phage were removed from the well with wash solution. The wash solution was varied depending on the round of biopanning. For first round of biopanning PBS1 was used. For subsequent rounds the stringency of the wash was increased by using sequentially PBS2, PBS3 and PBS4 (see Table I). […]

## CO[C@@H]1[C@H](OC(=O)NC(=O)CCl)CC[C@]2(CO2)[C@H]1[C@@]1(C)O[C@@H]1CC=C(C)C [TNP470]
[1]; Homo sapiens
  IC50: 0.00316 ± 0.00082 µM
[2]; Homo sapiens
  IC50: 1 µM
[3]; Homo sapiens
  IC50: 0.5 µM

## CC(=O)O[C@H]1C(=O)[C@@]2(C)[C@H]([C@H](OC(=O)c3ccccc3)[C@]3(O)C[C@H](OC(=O)[C@H](O)[C@@H](NC(=O)c4ccccc4)c4ccccc4)C(C)=C1C3(C)C)[C@]1(OC(C)=O)CO[C@@H]1C[C@@H]2O [Taxol, paclitaxel]
[1]; Homo sapiens
  IC50: 0.00165 ± 0.00012 µM
[2]; Homo sapiens
  IC50: 0.05 µM
[3]; Homo sapiens
  IC50: 0.1 µM

## CC1CC(C)CC(C)C(O)C(C#N)=CC=CCC(C2CCCC2C(=O)OCCc2ccccn2)OC(=O)CC(O)C(C)C1 (stereo not shown) [borrelidin-(2-pyridyl)-ethyl ester]
[4]
  selectivity index, capillary formation inhibitory activity versus cell proliferation with respect to borrelidin: 7.5 fold

## CC1CC(C)CC(C)C(O)CC(=O)OC(C2CCCC2C(=O)NCc2cccnc2)C(C#N)=CC=CCC(O)C(C)C1 (stereo not shown) [borrelidin-(3-picolylamide)]
[5]
  increase of micrometastases: inhibit very considerably
[6]
  metastasis-forming ability of mouse colon adenocarcinoma cells transplanted into mouse spleen: considerably decreased

## C[C@@H]1C[C@H](C)C[C@H](C)[C@@H](O)CC(=O)O[C@H]([C@@H]2CCC[C@H]2C(=O)NCCN2CCOCC2)C/C=C/C=C(/C#N)[C@H](O)[C@@H](C)C1 [borrelidin-morpholinoethyl amide]
[4]
  selectivity index, capillary formation inhibitory activity versus cell proliferation with respect to borrelidin: 6 fold

## C[C@@H]1C[C@H](C)C[C@H](C)[C@@H](O)CC(=O)O[C@H]([C@@H]2CCC[C@H]2C(=O)OCCN2CCOCC2)C/C=C/C=C(/C#N)[C@H](O)[C@@H](C)C1 [borrelidin-morpholinoethyl ester]
[4]
  selectivity index, capillary formation inhibitory activity versus cell proliferation with respect to borrelidin: 60 fold

## CC1CC(C)CC(C)C(O)C(C#N)=CC=CCC(C2CCC2C(=O)O)OC(=O)CC(O)C(C)C1 (stereo not shown) [compound 5, 17-des-(cyclopentane-2′-carboxylic acid)-17-(cyclobutane-2′-carboxylic acid) borrelidin]
[7]
  VEGFxxx expression (ELISA): significant downregulation
  VEGFxxxb expression (ELISA): significant upregulation
[8]; 5 μM
  increase in VEGFxxxb levels versus control: statistically higher than those of the control
[8]; increasing concentrations
  total VEGF levels (ELISA): dose dependent decrease
[9]
  effect on VEGFxxxb levels after FBP21 transfection: FBP21 transfection reduced the effect
[10]
  effect on VEGFxxxb levels after FBP21 transfection: FBP21 transfection reduced the effect
[11]; 0.5 μM injected into one eye
  percentage neovascularisation compared to vehicle and the 5 μM dose: significantly inhibited
  neovascularisation compared with contralateral eye: significant reduction
[11]; 5 μM injected into one eye
  neovascularisation compared with contralateral eye: significant reduction

## borrelidin-amide
[4]
  selectivity index, capillary formation inhibitory activity versus cell proliferation with respect to borrelidin: 37 fold

## pre-borrelidin
[1]
  IC50: 2.38 µM
[2]
  IC50: > 30 µM
[3]
  IC50: 0.461 µM
[12]
  identification of FBP21 fragment by biopanning (binding): never identified

Source: US20110027185A1, “Methods of Screening for Anti-Angiogenic Compounds” (priority 2007, published 2011)
